Assay [1] has as its target CDK2/Cyclin E1 (Homo sapiens (Human), UniProt P24941). Put plainly: CDK2/Cyclin E1 Full length ADP-Glo Kinase Assay. It is filed as biochemical. The note with it: 20 uM ATP, read-out: CDK2/ CyclinE1 IC50. Here is the method:
CDK2/Cyclin E1 Full length ADP-Glo Kinase Assay
(§1) The purpose of CDK2/Cyclin E1 assay is to evaluate the inhibition (% inhibition and IC50 values) of small molecule inhibitors by using a Luminescent based ADP-Glo assay. CDK2/Cyclin E1 full length catalyzes the production of ADP from ATP. ADP-Glo assay monitors ADP producing biochemical reactions. ADP-Glo is performed in 2 steps upon completion of kinase reaction: a combined termination of kinase reaction and depletion of remaining ATP in the first step, and conversion of generated ADP to ATP and the newly produced ATP to light output using luciferase/luciferin reaction in the second step. The luminescent signal generated is proportional to the ADP concentration produced and is correlated with the kinase activity. CDK2/Cyclin E1 was purchased from Eurofins (Cat 14-475M). […] The assay was initiated with the addition of ATP-containing substrate solution, following a 30-minute pre-incubation of enzyme and inhibitor at room temperature in the reaction mixture. The reaction was stopped after 90 minutes at room temperature by the addition of 10 uL of ADP-GLO Reagent. After a 90 minute incubation, 20 uL of Kinase Detection Reagent was added. Samples were incubated for 40 minutes, after which plate well luminescence was measured on a Envision microplate reader. The IC50 determinations were made from a plot of the fractional velocity as a function of inhibitor concentration fit to the 4 parameters IC50 equation.
Background: ADP-Glo turns the ADP formed in a reaction into a luminescent signal.

Assay [2] addresses CDK1/Cyclin B1 (Homo sapiens (Human), UniProt P06493). Kind of assay: CDK1/Cyclin B1 ADP-Glo Kinase Assay. Type of assay: biochemical. The note with it: ADP-Glo, 80 uM ATP; read-out: CDK1 Cyclin B1 IC50. Here is the method: CDK1/Cyclin B1 ADP-Glo Kinase Assay
as §1, with “CDK1/Cyclin B1” for “CDK2/Cyclin E1”, “CDK1/Cyclin B1” for “CDK2/Cyclin E1 full length”, “Carna” for “Eurofins”, “04-102).” for “14-475M).”

Assay [3] concerns the target CDK6/Cyclin D3 (Homo sapiens (Human), UniProt Q00534). Kind of assay: CDK6/Cyclin D3 ADP-Glo Kinase Assay. Type of assay: biochemical. Conditions: 100 uM ATP, read-out: CDK6/ CyclinD3 IC50. Here is the method: CDK6/Cyclin D3 ADP-Glo Kinase Assay
The purpose of the CDK6/Cyclin D3 assay is to evaluate the inhibition (% inhibition and IC50 values) in the presence of small molecule inhibitors by using a Luminescent based ADP-Glo assay. CDK6/Cyclin D3 catalyzes the production of ADP from ATP. ADP-Glo assay monitors ADP producing biochemical reactions. ADP-Glo is performed in 2 steps upon completion of kinase reaction: a combined termination of kinase reaction and depletion of remaining ATP in the first step, and conversion of generated ADP to […] and the newly produced ATP to light output using luciferase/luciferin reaction in the second step. The luminescent signal generated is proportional to the ADP concentration produced and is correlated with the kinase activity CDK6/Cyclin D3 was purchased from Carna. […] The assay was initiated with the addition of ATP-containing substrate solution, following a 30-minute pre-incubation of enzyme and inhibitor at room temperature in the reaction mixture. The reaction was stopped after 90 minutes at room temperature by the addition of 10 uL of ADP-GLO Reagent. After a 90-minute incubation, 20 uL of Kinase Detection Reagent was added. Samples were incubated for 40 minutes, after which plate well luminescence was measured on a Envision microplate reader. The IC50 determinations were made from a plot of the fractional velocity as a function of inhibitor concentration fit to the 4 parameters IC50 equation.

For assay [4], the target named is CDK4/Cyclin D1 (Homo sapiens (Human), UniProt P11802). Kind of assay: CDK4/Cyclin D1 CHEF Assay (AQT0258 peptide). It is filed as biochemical. The note with it: 200 uM ATP, read-out: CDK4/ CyclinD1 AQT IC50. From the text:
CDK4/Cyclin D1 CHEF Assay
The purpose of CDK4/Cyclin D1 assay is to evaluate the inhibition (% inhibition and IC50 values) of small molecule inhibitors by using a Chelation-Enhance Fluorescence (CHEF) assay. In a CHEF assay, phosphorylation of a peptide substrate results in proportional increase in fluorescence. CHEF kinase assay use peptide substrates containing a synthetic alpha-amino acid with a side chain bearing an 8-hydroxyquinoline derivative (sulfonamido-oxide, Sox). Upon phosphorylation of a nearby serine, threonine or tyrosine and in the presence of Mg(II), the spectral properties of the Sox residue are altered, emitting 485 nm wavelength light when excited with a 360 nm wavelength light source. CDK4/Cyclin D1 catalyzes the phosphoryl transfer to the SOX-labeled substrate peptide AQT0258 from Assayquant Technologies. […] The reaction was initiated with the addition of substrate solution, following a 30-minute pre-incubation of enzyme and inhibitor at 22° C. in the reaction mix. Reactions were allowed to proceed for 3 hrs at 22° C., followed by fluorescence read of the reaction. The IC50 determinations were made from a plot of the fractional velocity as a function of inhibitor concentration fit to the 4 parameters IC50 equation.

Assay [5] concerns OVCAR-3 cells. Kind of assay: Cell Growth Inhibition, OVCAR-3 (CellTiterGlo, 6 days). It is filed as cell-based. Conditions: Homo sapiens, 144 h, OVCAR-3, 6-day treatment. From the text:
(§2) MCF-7 and OVCAR-3 cells were used to evaluate the anti-proliferation activity of the CDK inhibitors. MCF-7 (ATCC, HTB-22) cells are epithelial cells from a patient with ER+ metastatic adenocarcinoma. OVCAR-3 (ATCC, HTB-161) cells were derived from malignant ascites of a patient with ovarian cancer and are known to have CCNE1 amplification. Both cell lines were maintained in RPMI media supplemented with 10% fetal bovine serum. For cell growth inhibition assay, CDK inhibitors in DMSO solution were dispensed with either Echo 655 (Beckman Coulter) or Tecan D300e (HP) into 384-well plates (Corning #3765) and the 384-well plates were UV-sterilized prior to the assay. The inhibitors were typically tested in the 10-10,000 nM concentration range with half-log serial dilutions. MCF-7 or OVCAR-3 (500 cells/30 μL/well) were added to each well using Multidrop Combi (ThermoFisher) using standard cassettes. The assay plates with cells were cultured at 37° C., 5% CO2 for 6 days. At the end of the 6-day treatment, 30 μL of CellTiterGlo 2.0 (Promega) was added to each well and the luminescent signal was read using CLARIOstar plus (BMG). The percentage of cell growth inhibition (% CGI) was calculated using the following formula 00 CGI=100-100×luminescencesampie/luminescencecontroi. The half maximal inhibitory concentration (IC50) was determined by nonlinear curve fitting (four parameters, variable slope).

Assay [6] concerns MCF-7 cells. Put plainly: Cell Growth Inhibition, MCF-7 (CellTiterGlo, 6 days). It is filed as cell-based. Conditions: Homo sapiens, MCF7, 144 h, MCF-7, 6-day treatment.
Text: as §2
(In general: Cellular ATP, detected with luciferase, serves as a proxy for viable cell number.)

Data on eleven molecules can be found in patent publication US20240034731A1, “AZA-QUINAZOLINE COMPOUNDS AND METHODS OF USE” (Iambic Therapeutics, Inc., priority 2022, published 2024).

Sequence of CDK4/Cyclin D1 (P11802 whole entry): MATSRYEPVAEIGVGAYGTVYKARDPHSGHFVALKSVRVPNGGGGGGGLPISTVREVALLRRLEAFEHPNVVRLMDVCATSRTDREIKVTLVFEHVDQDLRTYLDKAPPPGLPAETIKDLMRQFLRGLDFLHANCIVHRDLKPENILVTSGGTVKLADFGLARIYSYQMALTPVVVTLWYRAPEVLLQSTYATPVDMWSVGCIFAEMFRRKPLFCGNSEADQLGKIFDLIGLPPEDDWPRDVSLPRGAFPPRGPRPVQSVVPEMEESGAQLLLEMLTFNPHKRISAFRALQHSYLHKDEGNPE
Sequence of CDK4/Cyclin D1 (P24385 whole entry partner): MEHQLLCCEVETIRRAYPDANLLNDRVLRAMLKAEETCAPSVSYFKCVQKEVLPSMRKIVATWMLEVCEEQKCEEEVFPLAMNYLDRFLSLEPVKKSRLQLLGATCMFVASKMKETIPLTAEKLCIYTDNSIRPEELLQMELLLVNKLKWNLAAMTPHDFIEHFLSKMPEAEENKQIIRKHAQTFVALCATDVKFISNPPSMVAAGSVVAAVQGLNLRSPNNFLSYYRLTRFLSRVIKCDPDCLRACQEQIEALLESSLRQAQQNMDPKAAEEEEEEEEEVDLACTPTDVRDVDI
Sequence of CDK6/Cyclin D3 (Q00534 whole entry): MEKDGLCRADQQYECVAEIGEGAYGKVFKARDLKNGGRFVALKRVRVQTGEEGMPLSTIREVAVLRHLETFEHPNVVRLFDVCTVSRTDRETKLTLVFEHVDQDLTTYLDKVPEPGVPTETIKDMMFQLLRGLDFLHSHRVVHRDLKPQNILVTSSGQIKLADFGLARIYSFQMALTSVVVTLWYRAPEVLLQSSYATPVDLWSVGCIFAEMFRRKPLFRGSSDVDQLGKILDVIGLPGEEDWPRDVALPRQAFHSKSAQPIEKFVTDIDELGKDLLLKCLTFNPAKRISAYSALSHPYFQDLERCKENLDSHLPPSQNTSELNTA
Sequence of CDK6/Cyclin D3 (P30281 whole entry partner): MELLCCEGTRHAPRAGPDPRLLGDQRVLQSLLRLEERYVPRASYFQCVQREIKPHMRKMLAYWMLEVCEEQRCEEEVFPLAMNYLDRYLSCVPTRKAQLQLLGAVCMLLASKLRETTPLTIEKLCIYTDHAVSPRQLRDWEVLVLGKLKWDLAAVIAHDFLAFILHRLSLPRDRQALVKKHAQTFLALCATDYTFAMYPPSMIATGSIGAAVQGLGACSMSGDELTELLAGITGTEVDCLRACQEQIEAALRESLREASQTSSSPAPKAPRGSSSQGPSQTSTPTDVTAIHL
Sequence of CDK1/Cyclin B1 (P06493 whole entry): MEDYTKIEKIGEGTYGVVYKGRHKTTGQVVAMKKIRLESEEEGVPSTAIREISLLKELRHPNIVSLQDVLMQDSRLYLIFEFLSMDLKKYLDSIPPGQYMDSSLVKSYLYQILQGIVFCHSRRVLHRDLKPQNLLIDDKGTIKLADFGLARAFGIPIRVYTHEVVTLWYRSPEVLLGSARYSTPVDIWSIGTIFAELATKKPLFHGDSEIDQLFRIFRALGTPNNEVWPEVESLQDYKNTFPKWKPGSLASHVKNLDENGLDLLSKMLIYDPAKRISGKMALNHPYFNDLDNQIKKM
Sequence of CDK1/Cyclin B1 (P14635 whole entry partner): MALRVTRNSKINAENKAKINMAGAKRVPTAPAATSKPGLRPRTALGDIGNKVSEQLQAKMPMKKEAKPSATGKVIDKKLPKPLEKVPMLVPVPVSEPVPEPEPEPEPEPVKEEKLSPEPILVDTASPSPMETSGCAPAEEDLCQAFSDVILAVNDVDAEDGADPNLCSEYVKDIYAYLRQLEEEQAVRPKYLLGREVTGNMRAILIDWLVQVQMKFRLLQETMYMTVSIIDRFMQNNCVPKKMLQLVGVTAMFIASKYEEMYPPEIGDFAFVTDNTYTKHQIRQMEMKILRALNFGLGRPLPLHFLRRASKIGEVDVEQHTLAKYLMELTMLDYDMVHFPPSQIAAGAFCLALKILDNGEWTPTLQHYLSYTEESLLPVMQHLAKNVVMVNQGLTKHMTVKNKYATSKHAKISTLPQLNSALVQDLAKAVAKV

Consider `[2H]C([2H])([2H])N1CC2(CN(c3nc(C)cc4cnc(NC5CCN(S(=O)(=O)C6CC6)CC5)nc34)CC2(F)F)C1` [Compound 13, N-(1-(cyclopropylsulfonyl)piperidin-4-yl)-8-(8,8-difluoro-2-(methyl-d3)-2,6-diazaspiro[3.4]octan-6-yl)-6-methylpyrido[3,4-d]pyrimidin-2-amine], for which the IC50 in assay [1], in assay [2], in assay [3] and in assay [4] was less than 200 nM each time.

On to `CS(=O)(=O)N1CCC(Nc2ncc3ccnc(N4C[C@H]5c6ccccc6S(=O)(=O)[C@H]5C4)c3n2)CC1` [Compound 16, (3aR,8bR)-2-(2-((1-(methylsulfonyl)piperidin-4-yl)amino)pyrido[3,4-d]pyrimidin-8-yl)-2,3,3a,8b-tetrahydro-1H-benzo[4,5]thieno[2,3-c]pyrrole 4,4-dioxide], for which the IC50 in assay [5] is 500 to 2000 nM; in assay [2], less than 200 nM; in assay [6], 500 to 2000 nM.

Take `Cc1cc2cnc(NC3CCN(S(C)(=O)=O)CC3)nc2c(N2CC3(C2)CN(C2CC2)C3)n1` [Compound 42, 8-(6-cyclopropyl-2,6-diazaspiro[3.3]heptan-2-yl)-6-methyl-N-(1-(methylsulfonyl)piperidin-4-yl)pyrido[3,4-d]pyrimidin-2-amine]: the IC50 in assay [5] was 500 to 2000 nM; in assay [2], greater than 2000 nM; in assay [6], 500 to 2000 nM.

Take `Cc1cc2cnc(NC3CCN(S(=O)(=O)C4CC4)CC3)nc2c(N2CC(C#N)(CCF)C2)n1` [Compound 68, 1-(2-((1-(cyclopropylsulfonyl)piperidin-4-yl)amino)-6-methylpyrido[3,4-d]pyrimidin-8-yl)-3-(2-fluoroethyl)azetidine-3-carbonitrile]: the IC50 in assay [1] is less than 200 nM; in assay [2], greater than 2000 nM; in assay [3], 500 to 2000 nM; in assay [4] it was 200 to 500 nM.

For the molecule `Cc1cc2cnc(NC3CCN(S(C)(=O)=O)CC3)nc2c(C2CC(C)(CO)C2)n1` (centres unmarked) [Compound 69, (1-methyl-3-(6-methyl-2-((1-(methylsulfonyl)piperidin-4-yl)amino)pyrido[3,4-d]pyrimidin-8-yl)cyclobutyl)methanol], the IC50 in assay [1], in assay [2], in assay [3] and in assay [4] was less than 200 nM each time.

With `Cc1cc2cnc(NC3CCN(S(C)(=O)=O)CC3)nc2c(N2CC3(CNC(=O)C3)C2)n1` [Compound 81, 2-(6-methyl-2-((1-(methylsulfonyl)piperidin-4-yl)amino)pyrido[3,4-d]pyrimidin-8-yl)-2,6-diazaspiro[3.4]octan-7-one], the IC50 is less than 200 nM in assay [1], 200 to 500 nM in assay [2], 200 to 500 nM in assay [3] and less than 200 nM in assay [4].

Take `Cc1cc2cnc(NC3CCN(S(C)(=O)=O)CC3)nc2c(N2CC3(CCC(=O)NC3)C2)n1` [Compound 82, 2-(6-methyl-2-((1-(methylsulfonyl)piperidin-4-yl)amino)pyrido[3,4-d]pyrimidin-8-yl)-2,6-diazaspiro[3.5]nonan-7-one]: the IC50 in assay [1] was less than 200 nM; in assay [2], 200 to 500 nM; in assay [3], 200 to 500 nM; in assay [4] it was 200 to 500 nM.

Take `Cc1cc2cnc(NC3CCN(S(C)(=O)=O)CC3)nc2c(N2CC3(CNCC3F)C2)n1` (centres unmarked) [Compound 98, 8-(8-fluoro-2,6-diazaspiro[3.4]octan-2-yl)-6-methyl-N-(1-(methylsulfonyl)piperidin-4-yl)pyrido[3,4-d]pyrimidin-2-amine]: the IC50 in assay [1] is less than 200 nM; in assay [2] it was 200 to 500 nM; in assay [3] it was 200 to 500 nM; in assay [4], less than 200 nM.

In the case of `Cc1cc2cnc(NC3CCN(S(C)(=O)=O)CC3)nc2c(C2CC3(CNCC3(F)F)C2)n1` (centres unmarked) [Compound 99, 8-(8,8-difluoro-6-azaspiro[3.4]octan-2-yl)-6-methyl-N-(1-(methylsulfonyl)piperidin-4-yl)pyrido[3,4-d]pyrimidin-2-amine], the IC50 in assay [1], in assay [2], in assay [3] and in assay [4] was less than 200 nM in each case.

For `Cc1cc2cnc(NC3CCN(S(C)(=O)=O)CC3)nc2c(N2CC3(CN(C)C[C@@H]3F)C2)n1` [Compound 103, (R)-8-(8-fluoro-6-methyl-2,6-diazaspiro[3.4]octan-2-yl)-6-methyl-N-(1-(methylsulfonyl)piperidin-4-yl)pyrido[3,4-d]pyrimidin-2-amine], the IC50 in assay [3] and in assay [4] was less than 200 nM throughout.

In the case of `Cc1cc2cnc(NC3CCN(S(C)(=O)=O)CC3)nc2c(N2CC3(CN(C)C[C@H]3F)C2)n1` [Compound 104, (S)-8-(8-fluoro-6-methyl-2,6-diazaspiro[3.4]octan-2-yl)-6-methyl-N-(1-(methylsulfonyl)piperidin-4-yl)pyrido[3,4-d]pyrimidin-2-amine], the figures for the IC50 in assay [3] and in assay [4] were 200 to 500 nM and less than 200 nM, respectively.
